According to ChEMBL document CHEMBL1130183, “Synthesis of a novel sialic acid derivative (sialylphospholipid) as an antirotaviral agent” (J Med Chem, 1997):

Legend:
Assay type in all cases: functional, organism-based; call rule not given here
[1] = test system: Simian rotavirus; assay: Inhibitory concentration against Simian rotavirus SA-11 strain; settings: Rotavirus A
[2] = test system: Rotavirus; assay: Inhibitory concentration against human rotavirus MO strain
[3] = test system: Rotavirus; assay: Inhibitory concentration against human rotavirus MO strain; No inhibition
[4] = test system: Simian rotavirus; assay: Inhibitory concentration against Simian rotavirus SA-11 strain; No inhibition

SMILES	IC50 [1]	IC50 [2]	IC50 [3]	IC50 [4]
CCCCCCCCCCCCCCCCCC(=O)OCC(COP(=O)(O)OCCCCCCCCOC1(C(=O)O)CC(O)C(NC(C)=O)C([C@H](O)[C@H](O)CO)O1)OC(=O)CCCCCCCCCCCCCCCCC (stereo not given in full)	4.35 µM	16.1 µM	–	–
CC(=O)NC1C(O)CC(O)(C(=O)O)OC1C(O)C(O)CO (stereo not given)	4280 µM	–	–	–
CCCCCCCCCCCCCCCCCC(=O)OCC(COP(=O)([O-])OCC[N+](C)(C)C)OC(=O)CCCCCCCCCCCCCCCCC (stereo not given)	–	–	Not Active	Not Active
